Assay results as given in patent US9693556B2, “Herbicidal pyridazinone derivatives” (SYNGENTA LIMITED, priority 2011, dated 2017).

How the values were obtained:
Assay type in all cases: in vivo
Solanum nigrum (SOLNI) [1] = experiment: Pre-emergence herbicidal glasshouse test on Solanum nigrum; conditions: pre-emergence; 1000 g/h; evaluated after 13 days
How it was run: (§1)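 Herbicidal damage was rated 13 days after treatment on a five-point scale, where 5 denotes 80-100% and 1 denotes 0-19% damage. Spraying at 1000 g/h followed sowing by one day (pre-emergence) or eight days (post-emergence).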

Setaria faberi (SETFA) [2] = experiment: Pre-emergence herbicidal glasshouse test on Setaria faberi; conditions: pre-emergence; 1000 g/h; evaluated after 13 days
How it was run: as §1

[3] = system: Echinochloa crus-galli (ECHCG); experiment: Post-emergence herbicidal glasshouse test on Echinochloa crus-galli; conditions: post-emergence; 1000 g/h; evaluated after 13 days
How it was run: as §1

[4] = system: Ipomoea hederacea (IPOHE); experiment: Post-emergence herbicidal glasshouse test on Ipomoea hederacea; conditions: post-emergence; 1000 g/h; evaluated after 13 days
How it was run: as §1

[5] = system: Amaranthus retoflexus (AMARE); experiment: Post-emergence herbicidal glasshouse test on Amaranthus retoflexus; conditions: post-emergence; 1000 g/h; evaluated after 13 days
How it was run: as §1

[6] = system: Alopecurus myosuroides (ALOMY); experiment: Post-emergence herbicidal glasshouse test on Alopecurus myosuroides; conditions: post-emergence; 1000 g/h; evaluated after 13 days
How it was run: as §1

[7] = system: Echinochloa crus-galli (ECHCG); experiment: Pre-emergence herbicidal glasshouse test on Echinochloa crus-galli; conditions: pre-emergence; 1000 g/h; evaluated after 13 days
How it was run: as §1

[8] = system: Alopecurus myosuroides (ALOMY); experiment: Pre-emergence herbicidal glasshouse test on Alopecurus myosuroides; conditions: pre-emergence; 1000 g/h; evaluated after 13 days
How it was run: as §1

[9] = system: Ipomoea hederacea (IPOHE); experiment: Pre-emergence herbicidal glasshouse test on Ipomoea hederacea; conditions: pre-emergence; 1000 g/h; evaluated after 13 days
How it was run: as §1

Setaria faberi (SETFA) [10] = experiment: Post-emergence herbicidal glasshouse test on Setaria faberi; conditions: post-emergence; 1000 g/h; evaluated after 13 days
How it was run: as §1

Solanum nigrum (SOLNI) [11] = experiment: Post-emergence herbicidal glasshouse test on Solanum nigrum; conditions: post-emergence; 1000 g/h; evaluated after 13 days
How it was run: as §1

[12] = system: Amaranthus retoflexus (AMARE); experiment: Pre-emergence herbicidal glasshouse test on Amaranthus retoflexus; conditions: pre-emergence; 1000 g/h; evaluated after 13 days
How it was run: as §1

| Structure (SMILES) | PRE Application SOLNI herbicidal damage (five point scale) (Solanum nigrum (SOLNI) [1]) | PRE Application SETFA herbicidal damage (five point scale) (Setaria faberi (SETFA) [2]) | POST Application ECHCG herbicidal damage (five point scale) [3] | POST Application IPOHE herbicidal damage (five point scale) [4] | POST Application AMARE herbicidal damage (five point scale) [5] | POST Application ALOMY herbicidal damage (five point scale) [6] | PRE Application ECHCG herbicidal damage (five point scale) [7] | PRE Application ALOMY herbicidal damage (five point scale) [8] | PRE Application IPOHE herbicidal damage (five point scale) [9] | POST Application SETFA herbicidal damage (five point scale) (Setaria faberi (SETFA) [10]) | POST Application SOLNI herbicidal damage (five point scale) (Solanum nigrum (SOLNI) [11]) | PRE Application AMARE herbicidal damage (five point scale) [12] |
| --- | --- | --- | --- | --- | --- | --- | --- | --- | --- | --- | --- | --- |
| COc1cccc(-c2c(C(F)(F)F)ccn(-c3cnn(C)c(=O)c3O)c2=O)c1 [Compound 7.003] | 5 (5=80-100% damage) | 4 (4=60-79% damage) | 5 (5=80-100% damage) | 3 (3=40-59% damage) | 5 (5=80-100% damage) | 4 (4=60-79% damage) | 4 (4=60-79% damage) | 4 (4=60-79% damage) | 3 (3=40-59% damage) | 3 (3=40-59% damage) | 5 (5=80-100% damage) | 5 (5=80-100% damage) |
| Cn1nc([N+](=O)[O-])c(-c2ccc(C(F)(F)F)cc2S(C)(=O)=O)c(O)c1=O [Compound 2.022] | 5 (5=80-100% damage) | 4 (4=60-79% damage) | 5 (5=80-100% damage) | 5 (5=80-100% damage) | 5 (5=80-100% damage) | 5 (5=80-100% damage) | 5 (5=80-100% damage) | 5 (5=80-100% damage) | 5 (5=80-100% damage) | 5 (5=80-100% damage) | 5 (5=80-100% damage) | 5 (5=80-100% damage) |
| Cn1ncc(-c2ccc(S(=O)(=O)Cc3ccccc3)cc2S(C)(=O)=O)c(O)c1=O [Compound 2.036] | 5 (5=80-100% damage) | 5 (5=80-100% damage) | 5 (5=80-100% damage) | 5 (5=80-100% damage) | 5 (5=80-100% damage) | 5 (5=80-100% damage) | 5 (5=80-100% damage) | 5 (5=80-100% damage) | 5 (5=80-100% damage) | 5 (5=80-100% damage) | 5 (5=80-100% damage) | 5 (5=80-100% damage) |
| Cn1ncc(-c2c(Cl)cccc2Cl)c(O)c1=O [Compound 1.118] | 1 (1=0-19% damage) | 1 (1=0-19% damage) | 2 (2=20-39% damage) | 2 (2=20-39% damage) | 4 (4=60-79% damage) | 1 (1=0-19% damage) | 1 (1=0-19% damage) | 1 (1=0-19% damage) | 1 (1=0-19% damage) | 1 (1=0-19% damage) | 3 (3=40-59% damage) | 1 (1=0-19% damage) |
| Cc1cc(-c2cnn(C)c(=O)c2O)c(=O)n(-c2ccsc2)c1 [Compound 6.002] | 5 (5=80-100% damage) | 1 (1=0-19% damage) | 1 (1=0-19% damage) | 2 (2=20-39% damage) | 4 (4=60-79% damage) | 1 (1=0-19% damage) | 1 (1=0-19% damage) | 1 (1=0-19% damage) | 2 (2=20-39% damage) | 1 (1=0-19% damage) | 3 (3=40-59% damage) | 5 (5=80-100% damage) |
